Literature values in US11220530B2, “Nanospheres of SEC14-like proteins and cognate ligands” (UNIVERSITÄT BERN, priority 2016, dated 2022).

Target: Cellular retinaldehyde-binding protein (CRALBP) (Bos taurus, UniProt P10123)
Conditions: for Kd: cited from Saari and Bredberg, J Biol Chem 1987, read-out: Kd (affinity for CRALBP)

Sequence of Cellular retinaldehyde-binding protein (CRALBP) (P10123 whole entry): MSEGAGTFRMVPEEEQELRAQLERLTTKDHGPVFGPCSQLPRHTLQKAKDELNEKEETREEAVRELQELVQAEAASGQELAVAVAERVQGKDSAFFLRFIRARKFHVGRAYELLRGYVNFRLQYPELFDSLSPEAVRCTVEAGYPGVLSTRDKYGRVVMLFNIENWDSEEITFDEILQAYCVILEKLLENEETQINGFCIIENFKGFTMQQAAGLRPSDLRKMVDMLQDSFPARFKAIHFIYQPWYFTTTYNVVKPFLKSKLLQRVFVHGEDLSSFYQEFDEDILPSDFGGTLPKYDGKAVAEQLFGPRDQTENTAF

| Kd | binding to CRALBP (same cited study) | SMILES |
| --- | --- | --- |
| 0.053 µM | – | CC1=C(/C=C/C(C)=C\C=C\C(C)=C\C=O)C(C)(C)CCC1 [9-cis-retinal] |
| 0.06 µM | – | CC1=C(/C=C/C(C)=C/C=C\C(C)=C\CO)C(C)(C)CCC1 [11-cis-retinol] |
| – | does not bind | CC1=C(/C=C/C(C)=C/C=C/C(C)=C/C=O)C(C)(C)CCC1 [13-cis] |
| 0.02 µM | – | CC1=C(/C=C/C(C)=C/C=C/C(C)=C/C=O)C(C)(C)CCC1 [11-cis-retinal] |
